Test system: human Schwann cells
Assay: Gene expression array and pathway analysis, Schwann cells
Format: cell-based
Description: For each cell line, n=8×25 cm^2 culture flasks were set up. Two flasks were harvested for each cell type on the day of treatment (24 hours after seeding). This represents the Day0 time point. From the remaining flasks, three flasks were treated with Control Medium and three were treated with Culture Medium (CM) containing LMW-DS to give a final concentration of 0.01 mg/ml. Cells from the treated flasks were collected after 48 hours. Therefore the collected data represent (a) untreated cells (Day0 Controls and Day2 Controls) and (b) cells treated with LMW-DS for 48 hours (Day2 LMW-DS treated).
25 cm^2 flasks were coated by adding 2 ml per flask of a solution of 50 μg/ml poly-d-lysine in Hank's balanced salt solution (HBSS) and incubating overnight at 37° C. in the dark. Flasks were washed with cell culture water and air-dried for 30 min in the dark. Flasks were coated by adding 1 ml per flask of a solution of 25 μg/ml laminin in phosphate-buffered saline (PBS) and incubating for 2 hour at 37° C. in the dark. The laminin flasks were washed with PBS three times before plating cells.
Schwann cells growth medium was prepared by adding 10% of fetal bovine serum (FBS) to high-glucose DMEM and pre-warmed to 37° C. Cells were thawed in a 37° C. water bath for no longer than 2 min.
Cells from 12 vials were each gently transferred to a tube containing 10 ml of high-glucose DMEM medium and centrifuged at 400 relative centrifugal field (RCF) for 10 min. Pellet was resuspended in culture medium. The cells from the 12 vials were mixed and distributed equally into the previously coated 25 cm^2 flasks (n=8). Cells were incubated at 37° C. with 5% CO2. Cells were allowed to settle for 24 hours before LMW-DS treatment.
LMW-DS was provided at a stock concentration of 20 mg/ml and was kept in a temperature monitored refrigerator at 4° C. A fresh […]LMW-DS stock (1.0 mg/ml) was prepared in sterile DMEM-F12. The concentrated drug stock was sterile filtered and added to the respective culture media (19.6 ml CM and 0.4 ml LMW-DS stock solution). The Control was made using 19.6 ml CM and 0.4 ml of DMEM-F12. LMW-DS and CM were added to the respective flasks (5 ml each) to reach the 0.01 mg/ml concentration of LMW-DS in each dish with a total of 10 ml CM each.
CM was aspirated into a clean and labelled 15 ml Falcon tube. The flasks (without culture medium) were placed into the −80° C. freezer for 30 minutes. The CM in the Falcon tubes were spun at 3000×g for 5 minutes. Supernatant was removed and the small pellet was re-suspended in 2.5 ml Trizol:Water (4:1) solution at room temperature (RT, […]).
Two aliquots of 1 ml lysate was removed from each sample and 200 μl of chloroform was added to each (0.2 ml of chloroform per 1 ml of TRIzol Reagent used during the cell lysis step) and the tube was shaken vigorously. Samples were stored at RT for 2-3 minutes and subsequently centrifuged at 12,000×g for 15 minutes at 4° C.
The expression data were downloaded into separate files for each cell line. The ‘Background corrected’ expression is the data from the “gProcessedSignal” of the arrays that is the result of the background signal extracted from the actual signal of the relevant probe. This is the most often used variable in array analysis. The background corrected signal was log 2 transformed for all samples for statistical analysis. To reduce the false discovery rate in the samples, the signals that were below ‘expression level’ were removed. The ‘below expression’ level was set at 5 for the log 2 transformed expression values.
Based on the expression pattern of the Control probes on each array it was decided to carry out Median Centering for all arrays before analysis to reduce the variability of the results. […]

low molecular weight dextran sulfate [LMW-DS]
Complex III (cytochrome bc1), mitochondrial oxidative stress pathway (0.01 mg/ml, 48 h): inhibited
TGFβ-induced effect in adhesion of immune cells, activation and aggregation of cells, fibrosis, self-activation of TGFβ (0.01 mg/ml, 48 h): totally abolished
activity and/or levels of glutamate transporters, in particular SLC1A2/3 (0.01 mg/ml, 48 h): increased
aggregate effect on pathways regulating cell movement and attachment (17 molecules) (0.01 mg/ml, 48 h): cell adhesion would be inhibited while cell movement would be activated
cellular attachment from attachment-related molecules (17 differentially expressed) (0.01 mg/ml, 48 h): overall slightly increased attachment
expression of protein complex (CALM, Gβγ, GRM7, PICK1) (0.01 mg/ml, 48 h): induced the expression
number of genes differentially expressed, D0 control vs D2 LMW-DS treated (0.01 mg/ml, 48 h): 1244 genes
number of genes differentially expressed, D2 control vs D2 LMW-DS treated (0.01 mg/ml, 48 h): 700 genes
number of genes: abolished nutrient effect / no effect (0.01 mg/ml, 48 h): 21
number of genes: abolished nutrient effect / significant downregulation (0.01 mg/ml, 48 h): 1
number of genes: abolished nutrient effect / significant upregulation (0.01 mg/ml, 48 h): 13
number of genes: abolished nutrient effect / total (0.01 mg/ml, 48 h): 35
number of genes: enhanced response to nutrients / significant downregulation (0.01 mg/ml, 48 h): 122
number of genes: enhanced response to nutrients / significant upregulation (0.01 mg/ml, 48 h): 441
number of genes: enhanced response to nutrients / total (0.01 mg/ml, 48 h): 563
number of genes: new effect induced by LMW-DS / significant downregulation (0.01 mg/ml, 48 h): 352
number of genes: new effect induced by LMW-DS / significant upregulation (0.01 mg/ml, 48 h): 74
number of genes: new effect induced by LMW-DS / total (0.01 mg/ml, 48 h): 426
number of genes: not different from control / significant downregulation (0.01 mg/ml, 48 h): 42
number of genes: not different from control / significant upregulation (0.01 mg/ml, 48 h): 373
number of genes: not different from control / total (0.01 mg/ml, 48 h): 415
number of genes: total / no effect (0.01 mg/ml, 48 h): 21
number of genes: total / significant downregulation (0.01 mg/ml, 48 h): 517
number of genes: total / significant upregulation (0.01 mg/ml, 48 h): 901
number of genes: total / total (0.01 mg/ml, 48 h): 1439
upstream regulator ANGPT2: activation z-score (D2 LMW-DS treatment): 1.283
upstream regulator ANGPT2: predicted activation state relative D2 control (D2 LMW-DS treatment): Activated
upstream regulator BMP2: activation z-score (D2 LMW-DS treatment): 1.395
upstream regulator BMP2: predicted activation state relative D2 control (D2 LMW-DS treatment): Activated
upstream regulator BMP4: activation z-score (D2 LMW-DS treatment): 0.927
upstream regulator BMP4: predicted activation state relative D2 control (D2 LMW-DS treatment): Activated
upstream regulator BMP7: activation z-score (D2 LMW-DS treatment): 1.86
upstream regulator BMP7: predicted activation state relative D2 control (D2 LMW-DS treatment): Activated
upstream regulator EGF: activation z-score (D2 LMW-DS treatment): 2.059
upstream regulator EGF: predicted activation state relative D2 control (D2 LMW-DS treatment): Activated
upstream regulator FGF2: activation z-score (D2 LMW-DS treatment): 2.37
upstream regulator FGF2: predicted activation state relative D2 control (D2 LMW-DS treatment): Activated
upstream regulator GDF2: activation z-score (D2 LMW-DS treatment): 2.561
upstream regulator GDF2: predicted activation state relative D2 control (D2 LMW-DS treatment): Activated
upstream regulator HGF: activation z-score (D2 LMW-DS treatment): 1.432
upstream regulator HGF: predicted activation state relative D2 control (D2 LMW-DS treatment): Activated
upstream regulator IGF1: activation z-score (D2 LMW-DS treatment): 1.332
upstream regulator IGF1: predicted activation state relative D2 control (D2 LMW-DS treatment): Activated
upstream regulator NRG1: activation z-score (D2 LMW-DS treatment): 1.768
upstream regulator NRG1: predicted activation state relative D2 control (D2 LMW-DS treatment): Activated
upstream regulator NRTN: activation z-score (D2 LMW-DS treatment): 0.958
upstream regulator NRTN: predicted activation state relative D2 control (D2 LMW-DS treatment): Activated
upstream regulator PGF: activation z-score (D2 LMW-DS treatment): 0.254
upstream regulator PGF: predicted activation state relative D2 control (D2 LMW-DS treatment): Activated
upstream regulator TGFβ1: activation z-score (D2 LMW-DS treatment): 1.05
upstream regulator TGFβ1: predicted activation state relative D2 control (D2 LMW-DS treatment): Less inhibited
upstream regulator VEGFA: activation z-score (D2 LMW-DS treatment): 3.4
upstream regulator VEGFA: predicted activation state relative D2 control (D2 LMW-DS treatment): Activated
upstream regulator WISP2: activation z-score (D2 LMW-DS treatment): -0.896
upstream regulator WISP2: predicted activation state relative D2 control (D2 LMW-DS treatment): Less inhibited
